Laboratory results published in patent US12577213B2 (NINGBO COMBIREG PHARMACEUTICAL TECHNOLOGY CO., LTD., priority 2020, dated 2026).
Like-named read-outs stand apart in the source and are kept apart here.

Tests used:
786-0 (renal cancer) = assay: NCI method SRB growth inhibition, 786-0; type: cell-based; details: Homo sapiens; 786-0, treated 48 hours, SRB stain
Method in brief: (§1)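 SRB absorbance at 515 nm was the read-out, taken after 48 h of compound treatment and compared with plates fixed just before dosing and with vehicle-treated plates. Values are concentrations giving 50% growth inhibition (GI50), total growth inhibition (TGI) or 50% cell kill (LC50).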

[1] = Metabolic stability in vivo (plasma half-life after IV); details: mouse, plasma, iv; intravenously at 1 mg/kg, male BALB/c nude mice; read-out: T½ of (IV in nude mice) (converted)
Experimental: The intravenous injection group of the embodiment compound was prepared with the mixed solvent of DMA:PEG400:30% SBECD=5:25:70 to form a 0.2 mg/mL of solution, and administered intravenously at 1 mg/kg of weight; and the oral preparation group was prepared with 0.5% MC to form a 1 mg/mL of solution, and administered by oral gavage at 10 mg/kg weight.
• Male BALB/c nude mice, 4-5 weeks old, purchased from Shanghai SLAC. 3. Experiment Method: 3.1 Instruments: • Liquid chromatography system: Shimadzu liquid chromatography system Shimadzu LC-30AD • MS/MS system: Applied Biosystems API5500 • Data collection: Analyst Software 1.5.2 3.2 Chromatographic Conditions Chromatographic Column • Analytical column: Kinetex 2.6u C18 100 A column (3.0 mm×30 mm) • Mobile phase: A: 10 mM NH4OAc (0.1% FA); B: Acetonitrile with 0.1% […] • Flow rate: 1.0 mL/min
Ion source was an electron spray ionization (ESI source) with negative ion detection; spray voltage source was 5500 V; ion source gas 1 (N2) was 50 psi; ion source gas 2 (N2) was 50 psi; air curtain gas (N2) was 30 psi. Scanning mode was multiple reaction monitoring (MRM); scanning time was 80 ms; collision gas pressure was 10 psi;
Grouping experiment, with three animals in each group, starting from now on, administration was started according to the weight of the animals. Blood was collected according to 5 min, 15 min, 30 min, 1 h, 2 h, 4 h, 8 h and 24 h after administration.
To 25.0 μL of plasma, 25.0 μL of internal standard solution (Tolbutamide (250 ng/mL) in acetonitrile), 25.0 μL of acetonitrile and 100 μL of acetonitrile were added, and the mixture was vortexed for 1 min, and centrifuged for 5 min (14000 rpm). 120 μL of the resulting supernatant was added with 80.0 μL of water (containing 1% formic acid) and mixed well, then analyzed by LC/MS/MS.

OVCAR-3 (ovarian cancer) = assay: NCI method SRB growth inhibition, OVCAR-3; type: cell-based; details: Homo sapiens; OVCAR-3, treated 48 hours, SRB stain
Method in brief: as §1

[2] = system: A549 (non-small cell lung cancer); assay: NCI method SRB growth inhibition, A549; type: cell-based; details: Homo sapiens; A549, treated 48 hours, SRB stain
Method in brief: as §1

HCT116 (colon cancer) = assay: NCI method SRB growth inhibition, HCT116; type: cell-based; details: Homo sapiens, HCT-116; HCT116, treated 48 hours, SRB stain
Method in brief: as §1

[3] = Liver microsomes stability; type: in vitro ADME, human; details: for half-life at 1 μM: human, human liver microsomes
Method in brief: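 Compound at 1 μM final incubated with 1 mg/mL human liver microsomes and 1 mM NADPH (no-NADPH control), sampled at 0, 5, 15, 30, 60 min. Remaining parent quantified by LC-MS/MS; T1/2 = 0.693/k.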

LOX-IMVI (melanoma) = assay: NCI method SRB growth inhibition, LOX-IMVI; type: cell-based; details: Homo sapiens, treated 48 hours, SRB stain
Method in brief: as §1

[4] = system: SF295 (central nervous system tumor); assay: NCI method SRB growth inhibition, SF295; type: cell-based; details: Homo sapiens, SF-295; SF295, treated 48 hours, SRB stain
Method in brief: as §1

K562 (leukemia) = assay: NCI method SRB growth inhibition, K562; type: cell-based; details: Homo sapiens; K562, treated 48 hours, SRB stain
Method in brief: as §1

PC-3 (prostate cancer) = assay: NCI method SRB growth inhibition, PC-3; type: cell-based; details: Homo sapiens; PC-3, treated 48 hours, SRB stain
Method in brief: as §1

HS 578T (breast cancer) = assay: NCI method SRB growth inhibition, HS 578T; type: cell-based; details: Homo sapiens, HS578T, treated 48 hours, SRB stain
Method in brief: as §1

[5] = 1 μM compound, 1 mg/mL human liver microsomes, 1 mM NADPH
[6] = 1 μM compound, 1 mg/mL human liver microsomes, 1 mM NADPH, read-out: T½ of HLM
[7] = as repeated in Table 4, read-out: T½ of HLM (in vitro)

SMILES | GI50 (786-0 (renal cancer)) | half-life [1] | GI50 (OVCAR-3 (ovarian cancer)) | GI50 [2] | GI50 (HCT116 (colon cancer)) | microsomal CLint at 1 μM [3, 5] | half-life at 1 μM [3, 6] | half-life at 1 μM [3, 7] | GI50 (LOX-IMVI (melanoma)) | GI50 [4] | GI50 (K562 (leukemia)) | GI50 (PC-3 (prostate cancer)) | GI50 (HS 578T (breast cancer))
[2H]C([2H])([2H])Oc1cc(C(=O)Nc2cc3c(cc2Oc2cc(C)cc(C)c2)C(=O)N[C@@H](CC(=O)N(C([2H])([2H])C([2H])([2H])[2H])C([2H])([2H])C([2H])([2H])[2H])C(=O)N3)c(Br)c(OC([2H])([2H])[2H])c1OC([2H])([2H])[2H] [Compound 5, (S)-2-bromo-N-[3-[2-[bis(pentadeuteroethyl)amino]-2-oxoethyl]-7-(3,5-dimethylphenoxy)-2,5-dioxo-2,3,4,5-tetrahydro-1H-benzo[e][1,4]diazepin-8-yl]-3,4,5-tris(trideuteromethoxy)benzamide] | 26.1 nM | 1.52 h | < 5 nM | < 5 nM | < 5 nM | 3.2 µL/min/mg | 3.62 h | 3.62 h | < 5 nM | 17.4 nM | < 5 nM | < 5 nM | < 5 nM
[2H]C([2H])([2H])Oc1cc(C(=O)Nc2cc3c(cc2Oc2cc(C)cc(C)c2)C(=O)N(C)[C@@H](CC(=O)N(C)C)C(=O)N3)c(Br)c(OC([2H])([2H])[2H])c1OC([2H])([2H])[2H] [Compound 16, (S)-2-bromo-N-[3-[2-(dimethylamino)-2-oxoethyl]-7-(3,5-dimethylphenoxy)-4-methyl-2,5-dioxo-2,3,4,5-tetrahydro-1H-benzo[e][1,4]diazepin-8-yl]-3,4,5-tris(trideuteromethoxy)benzamide] | 11.2 nM | 0.585 h | < 5 nM | < 5 nM | < 5 nM | 11.6 µL/min/mg | 0.948 h | 0.997 h | < 5 nM | 7.6 nM | < 5 nM | < 5 nM | < 5 nM
[2H]C([2H])([2H])Oc1cc(C(=O)Nc2cc3c(cc2Oc2cc(C)cc(C)c2)C(=O)N[C@@H](CC(=O)N(C)C)C(=O)N3)c(Br)c(OC([2H])([2H])[2H])c1OC([2H])([2H])[2H] [Compound 20, (S)-2-bromo-N-[3-[2-(dimethylamino)-2-oxoethyl]-7-(3,5-dimethylphenoxy)-2,5-dioxo-2,3,4,5-tetrahydro-1H-benzo[e][1,4]diazepin-8-yl]-3,4,5-tris(trideuteromethoxy)benzamide] | 26.5 nM | 0.8 h | < 5 nM | < 5 nM | < 5 nM | 2.1 µL/min/mg | 5.5 h | 5.5 h | < 5 nM | 19.9 nM | < 5 nM | < 5 nM | < 5 nM
